Experimental data from US5871779A, “Treatment of arthropathies with vanadate compounds or analogues thereof” (Mount Sinai Hospital Corporation, priority 1996, dated 1999).

Tested on: collagenase
Assay: synovial collagenase expression in arthritic rats (Northern blot)
Type: in vivo, rat
Settings: BMOV-treated (with NAC) vs control, Day 18
Method: Collagenase, stromelysin, and IL-1 expression were quantitated in each group of rats. Selected rats in each group were sacrificed on Day 18 post arthritis onset to measure collagenase, stromelysin, and IL-1 expression via the Northern Blot. Synovial biopsies were pooled and homogenized in the presence of RNASTAT-60 (Tel Test). Total RNA was isolated following the manufacturer's instructions, washed in 70% ethanol, and dissolved in 30 μl RNA loading buffer (Sigma) containing ethidium bromide. The RNA was electrophoresed on a 1% agarose formaldehyde gel and transferred to 0.45 μm nylon filter membrane (Magna NT, MSL). The blot was prehybridised in 50% formamide, 5×SSPE, 5×dendhardts, 1% SDS, 200 μg/ml ssDNA and 50 μg/ml tRNA. The rat collagenase cDNA (bp. 1-550 of locus RATCOL genbank accession M60616), rat stromelysin (ATCC, Rockville, Md.), or rat […] (genbank accession D00403) were labeled by random primed incorporation of ^32 P-dATP (Random Primed Labeling Kit, Boerhinger Manheim). After overnight hybridization at 42° C. overnight, the blot was washed in 1×SSPE at 37° C. and exposed to Kodak X-Ornat AP film for 24 hours at -70° C. with an intensifying screen. The blot was stripped with 50% formamide in 2×SSPE, checked for residual counts and reprobed. The resulting autoradiographs were digitized and analyzed with NIH image software and normalized for RNA loading.

How did the “percent inhibition of collagenase gene expression” value turn out when `Cc1occc(=O)c1[O-].Cc1occc(=O)c1[O-].[O]=[V+2]` [BMOV, bis(methylmaltolato) oxovanadium (IV)] was run?
The value was 78%.
